This passage reports IC50 results from article PMC6563140, “Azaphilones from the Marine Sponge-Derived Fungus Penicillium sclerotiorum OUCMDZ-3839” (Marine Drugs, 2019).

The target in test [1] is α-glycosidase. Put plainly: PNPG enzyme inhibition assay. Format: biochemical.
Test [2] has as its target α-glycosidase. Put plainly: PNPG enzyme inhibition assay, reference inhibitor. Format: biochemical.

As a reminder, the IC50 is the concentration at which inhibition is half-maximal. A high value points to lower potency. Molecule `CC[C@H](C)/C=C(C)/C=C/C1=CC2=C(Cl)C(=O)[C@](C)(OC(C)=O)C(=O)C2=CN1` [compound 14, scleratioramine] showed an IC50 on α-glycosidase [1] of 166 µM.

As for `CC[C@H](C)/C=C(C)/C=C/C1=CC2=C(Cl)C(=O)[C@]3(C)OC(=O)[C@@H](C(C)=O)[C@@H]3C2=CO1` [compound 11, isochromophilone I], the IC50 at α-glycosidase [1] was found to be 17.3 µM.

Take `C[C@H]1O[C@H](O[C@H]2[C@H](O)[C@@H](O)[C@@H](O[C@H]3[C@H](O)[C@@H](O)C(O)O[C@@H]3CO)O[C@@H]2CO)[C@H](O)[C@@H](O)[C@@H]1N[C@H]1C=C(CO)[C@@H](O)[C@H](O)[C@H]1O` (stereo partly drawn) [acarbose]: the IC50 against α-glycosidase [2] stood at 1100 µM.
